In patent US20170197977A9, “COMPOSITIONS AND METHODS FOR TREATING NEURODEGENERATIVE DISEASE” (COGNITION THERAPEUTICS, INC., priority 2011, published 2017):
“Also recorded” adds a separate entry of the source.

Key:
[1] = test system: SKOV-3 human ovarian cancer cell line; assay: MTS tumor cell viability assay; assay type: cell-based; conditions: agonist/antagonist call relative to siramesine
Procedure: The cytotoxicity of compounds shown below was determined using the CellTiter96 Aqueous One Solution Assay (Promega, Madison, Wis.). […] The plate was read at 490 nm in a Victor3 plate reader (PerkinElmer Life and Analytical Sciences, Shelton, Conn.). The EC^50 value, defined as the concentration of the sigma ligand required to inhibit cell viability by 50% relative to untreated cells, was determined from the dose response curve for each cell line.

[2] = test system: 100 known receptors; assay: Test for action at 100 known receptors; assay type: binding, human; conditions: 10 μM
Procedure: It was also tested for its ability to block downstream signaling induced by agonists or antagonists of a given human receptor.

[3] = test system: neurons and glia in culture; assay: In vitro neuronal and glial toxicity, acute or chronic dosing; assay type: cell-based; conditions: up to 50 μM, three days
[4] = test system: Abeta oligomer-induced membrane trafficking deficits; assay: Membrane trafficking/exocytosis (MTT) assay in mature primary hippocampal neurons; assay type: cell-based, rat; conditions: for Membrane trafficking when dosed in the absence of Abeta: compound alone
Procedure: The present exocytosis assay was adapted for use with mature primary neuronal cultures grown for 3 weeks in vitro.
The methods used to generate the results were as follows in the Membrane Trafficking/Exocytosis (MTT) assay.
Primary hippocampal neurons from E18 Sprague-Dawley rat embryos were plated at optimized concentrations in 384 well plates in NB media (Invitrogen). Neurons were maintained in cultures for 3 weeks, with twice weekly feeding of NB media with N2 supplement (Invitrogen).
[…] MTT reagent (3-(4,5-dimethylthizaol-2yl)-2,5diphenyl tetrazolium bromide) (Roche Molecular Biochemicals) was reconstituted in phosphate buffered saline to 5 mg/mL. 10 μL of MTT labeling reagent is added to each well and incubated at 37° C. for 1 h, then imaged. Exocytosis was assessed by automated microscopy and image processing to quantify the amount of endocytosed and exocytosed formazan.
Each assay plate was formatted so that compounds are tested with and without Abeta oligomer on each plate.

[5] = test system: neuronal cultures; assay: Nuclear intensity / morphology in neuronal cultures; conditions: 24 hours
[6] = test system: sigma-2 receptor; assay: Autoradiography, displacement of [3H]-RHM-1 in brain sections; assay type: binding; conditions: 1 μM; monkey frontal cortex, monkey hippocampus, human temporal cortex
Procedure: Brain sections in 20 μM thickness from rats, rhesus monkeys and postmortem human brains were cut using with a Microm cryotome and mounted on superfrost plus glass slides (Fisher Scientific, Pittsburgh, Pa.)., and serial sections through the brain regions of cerebral cortex and hippocampus were used in this study.
Slides were dried and made conductive by coating with a copper foil tape on the free side and then placed in the gas chamber [mixture of argon and triethylamine (Sigma-Aldrich, USA)] of a gaseous detector, the Beta Imager 2000Z Digital Beta Imaging System (Biospace, France). […] [^3H]Microscale (American Radiolabeled Chemicals, Inc., St. Louis, Mo.) was counted at the same time as a reference for total radioactivity quantitative analysis, i.e., to convert the cpm/mm2 to nCi/mg tissue. Quantitative analysis was performed with the program Beta-Image Plus (BioSpace, France) for the anatomical regions of interest (ROI), i.e., to obtain the quantitative radioactivity uptake (cpm/nlln2) in the regions of cortex and hippocampus. The binding density was normalized to fmol/mg tissue based on the specific activities of the corresponding radioligands and calibration curve from the standard [^3H]Microscale.

[7] = test system: Abeta oligomer binding to neurons; assay: Abeta 1-42 oligomer binding assay in primary neurons; assay type: cell-based, rat
Procedure: In this assay, Abeta oligomers were brought in contact with mature primary neurons in culture and their binding was determined by immunohistochemistry (anti-Abeta antibody) and quantified by image processing. The amount of Abeta in neuronal dendrites is assessed by counting the number of labeled puncta on the neuritis. […] This labeling is associated with synapses, co-localizing with the post-synaptic scaffold protein PSD-95 (Lacor et al., '04). […] The number of synapses can also be quantified in this assay by immunofluorochemistry. Similar procedures for binding assays can be found in the literature. […] Review.
Primary hippocampal neuronal culture was established as in the membrane trafficking assay above. […] Pretreatment with compounds to be tested lasted for 1 hr and addition of Abeta oligomers or no oligomer (vehicle alone) in a final concentration of 70 ul was followed by incubation for an additional 23 hrs.
The plates were then washed 3× with PBS for 5 min each. The plates were blocked at RT for 1 hr in 5% goat serum and 0.5% Triton X-100 in PBS. […] Primary antibodies were incubated overnight at 4° C. The plates were then washed 3× with PBS for 5 min each. […] Secondary antibodies were incubated at RT for 1 hr. The plates were washed once with PBS. DAPI (4′,6-diamidino-2-phenylindole, Invitrogen) was then applied at 0.03 ug/ul and incubated at RT for 5 min, then washed with PBS.
Images were captured and analyzed with the Cellomics VTI automated microscope platform, using the Neuronal Profiling algorithm. For statistical analysis, a Tukey-Kramer pair-wise comparison with unequal variance was used.

[8] = test system: Abeta oligomer-induced memory deficits in wt C57BL/6 mice; assay: Contextual fear conditioning after intrahippocampal Abeta oligomer injection; assay type: in vivo, mouse
Procedure: Abeta oligomers (single 200 nanoMolar intrahippocampal injection) produced significant deficits in memory formation in 3-4 month old male wt C57BL/6 mice (N=16) compared to vehicle (N=18).
Several pharmaceutical companies use this same model in their discovery efforts. Contextual fear conditioning is an accepted model of associative memory formation which correlates to human cognitive function and specifically the creation of new (Delgado '06). Abeta oligomers are injected into the hippocampus of wild-type animals immediately before conditioning training and memory is assessed via freezing behavior after 24 hours. Details are provided in Example 9. […] This model system was chosen because intrahippocampal administration of oligomers allows rapid comparative assessment of compound activity and off-target toxicity. The results are shown graphically in FIG. 4.
Compound II was tested in an animal model of a memory-dependent behavioral task known as fear conditioning. The study protocol was designed based on published protocols (See e.g. Puzzo D, Privitera L, Leznik E, Fà M, Staniszewski A, Palmeri A, Arancio O. Picomolar amyloid-beta positively modulates synaptic plasticity and memory in hippocampus. J. Neurosci. 2008 Dec. 31; 28(53):14537-45.). The formation of contextual memories is dependent upon the integrity of medial temporal lobe structures such as the hippocampus. […]

[9] = test system: hAPP (Swedish/London) transgenic mice; conditions: 0.5 mg/kg/day subcutaneous minipump, one month, 8 month old female mice
Procedure: In this study, rather than preventing deficits from occurring, deficits that were already established were treated. These studies were performed pursuant to a service contract by scientists who were blind to the experimental conditions. The compound was infused at 0.5 and 0.1 mg/kg/day for one month in 8 month old female mice via subcutaneous minipump and cognitive performance was tested in the Morris water maze, a test of hippocampal-based spatial learning and memory.
The swim speed was analyzed as part of the Morris measurements to determine if there were any motor or motivational deficits. Our vehicle is a 5% DMSO/5% Solutol, 90% saline mixture. The transgenic animals treated with a low dose (0.1 mg/kg/day) and a high dose (0.5 mg/kg/day) of compound. The average of three daily trials on each of four consecutive days were determined.
Escape latency measurements from the Morris water test were taken.
During the final four days of treatment, mice were tested to find the hidden platform in three trials/day. A computerized tracking system automatically quantified escape latency, or swim length.

SMILES: COc1cc(CCC(C)NCc2ccc(C(F)(F)F)cc2)ccc1O (stereo not drawn) [Compound II]
- Action [1]: Antagonist
- Number of receptors with activity >50% (assay window) out of 100 [2]: 5
- Toxicity (neuron number, glial number, nuclear size, nuclear morphology, neurite length, cytoskeletal morphology) [3]: no toxicity
- Membrane trafficking deficits induced by AD brain-derived Abeta oligomers ([4]; 137 pM oligomers, Compound II 15 uM): eliminates the membrane trafficking deficits; also recorded: completely eliminated
- Abeta oligomer-induced membrane traffic changes ([4]; 15 micromolar Compound II): blocked
- Assay effects in the absence of Aβ ([4]; Table 10A, trafficking or synapse number without Abeta oligomer): No
- Functional Neuronal Phenotype ([4]; Table 10B): Antagonist
- Conc at Max Inhib. of Abeta ([4]; Table 11, figure in brackets): 10
- Membrane trafficking when dosed in the absence of Abeta [4]: does not affect trafficking
- Membrane trafficking when dosed in the absence of Abeta ([4]; listed as CT0109): no significant effect
- Nuclear morphology / nuclear intensity compared to vehicle [5]: did not decrease nuclear intensity
- Displacement of 18.4 nM [3H]-RHM-1 [6]: partially displace
- Abeta binding ([7]; Compound II 15 uM): reduced to essentially control levels
- Reduction of Abeta binding intensity (Abeta labeled puncta) ([7]; FIG. 3D): 18%
- Partial block of binding of the Abeta oligomer ligand to neurons ([7]; imaging processing algorithm): about 25%
- Memory performance when dosed alone ([8]; no Abeta oligomer): no effect of compounds alone
- Abeta oligomer-induced memory deficits (freezing behavior 24 hours post-training) ([8]; single intrahippocampal injection one hour prior to oligomers (2 microMolar, b68; 2 pmol dose)): completely blocked oligomer-mediated memory deficits; also recorded: eliminated memory deficits
- Cognitive performance, escape latency [9]: capable of improving cognitive performance
